Experimental data reported in US9365532B1, “Synthesis, composition and use of novel therapeutic and cosmetic Schiff base products formed by reaction of a carbonyl containing moeity with a transimination nucleophilic catalyst and the use of transimination nucleophilic catalysts to increase the rate at which carbonyl containing therapeutic and …” (Nanometics, LLC., priority 2011, dated 2016).
Entries after “also recorded” stand apart in the source; their conditions may differ.

Experiments:
[1] = test system: human skin; experiment: Melanoidin formation in vivo on human skin; details: low concentrations of transimination nucleophilic catalyst
Protocol: The application areas were allowed to dry for 5 min and were monitored for 14 days, with photographs taken throughout. The subjects were asked not to bathe for the first 24 h. […] Significant differences in the appearance of the application areas were noticeable during the study, and no adverse reactions of any kind were observed. […] The preliminary results of these experiments are promising, and we plan to expand the study to incorporate a larger, statistically significant panel during phase II SBIR studies.

[2] = molecular target: T1, HbA (Homo sapiens, UniProt P69905); experiment: 5HMF/HbA Schiff base adduct formation with purified HbA, cation-exchange HPLC; type: binding; details: for percent Hb adduct (5HMF/HbA): 30 min at room temperature, HbA 1 mg/ml PBS 7.4
T1 construct: purified HbA (1 mg/ml), from an anonymous human donor; from tissue; host or cells: blood of an anonymous human donor (purified HbA)
Protocol: The isolated imine of Example 1, formed by reacting p-aminobenzoic acid and 5-hydroxymethyl furfural, reacts with hemoglobin at faster rates than 5HMF. The therapeutic imine was synthesized according to Example 1. To a solution of purified HbA (1 mg/ml), from an anonymous human donor, in PBS 7.4 was added equivalent amounts of the therapeutic imine of AIC (1 mM), or 5HMF (1 mM). The HbA solutions show a new peak (˜7.1 min) on cation-exchange HPLC (Table 2) that elutes prior to the unmodified HbA peak (˜8.2 min). The new peak represents the […] formed between 5HMF and HbA and can be quantified by integration of the representative peaks. […] The initial rate of Schiff base adduct formation between the therapeutic imine and HbA is nearly 10 times faster than the rate of formation between 5HMF and HbA, as determined by cation-exchange HPLC at room temperature.

[3] = molecular target: T2, HbS (Homo sapiens, UniProt P69905); experiment: Ex vivo 5HMF/HbS adduct formation in whole blood, AIC vs 5HMF; type: cell-based, BERKγM mouse; details: for 5HMF/HbS adduct formed: 30 min at 37° C.
T2 construct: To aliquots of whole blood (100 μL), from the BERKγM mouse; from tissue; host or cells: red cells in whole blood of BERKγM / BERK M transgenic sickle mice (ex vivo incubation, or in vivo after i.v. injection)
Target sequence in this assay (P69905 2-142 limits assumed): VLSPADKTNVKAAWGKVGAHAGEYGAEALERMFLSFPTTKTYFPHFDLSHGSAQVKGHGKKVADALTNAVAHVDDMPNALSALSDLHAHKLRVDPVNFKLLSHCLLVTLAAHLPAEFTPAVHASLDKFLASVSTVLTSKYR

[4] = Stability to air, light and moisture (controlled humidity chamber); type: physicochemical; details: 500 mg, light, 22° C., 2 wks
Protocol: The commercial-scale production, distribution and stability of 5HMF, a hygroscopic off-white solid, may be costly as the compound is highly susceptible to degradation upon exposure to air, light and moisture (21). […] To quantify the differences in stability, 500 mg of AIC or 5HMF were placed in a controlled humidity chamber and exposed to light at 22° C. for a period of 2 wks.

[5] = molecular target: hemoglobin (Homo sapiens, UniProt P69905); experiment: Oxygen equilibrium curves of hemoglobin solutions (Hemox Analyzer); type: biochemical; details: for n50 (hill coefficient) / ΔP50 (%) / P50: no PABA
Protocol: The oxygen equilibrium curves (OEC) of hemoglobin (1 mg/ml) in phosphate buffer saline pH 7.4 containing 100 mM, 10 mM or 1 mM of the sodium salt of p-aminobenzoate (Sigma) were determined with a Hemox Analyzer (TCS Scientific Corp.). Hemoglobin solutions were incubated at 37° C. for 1 h, in the presence (+) or absence (−) of each compound, as specified in Table 1.

[6] = molecular target: T2, HbS; experiment: Ex vivo 5HMF/HbS adduct formation in whole blood, PABA/5HMF mixtures; type: cell-based, BERKγM transgenic mouse; details: for 5HMF/HbS adduct formed: whole blood
Protocol: Studies were initiated to explore the impact of mixing equimolar concentrations of PABA and 5HMF on the rate of 5HMF/HbS adduct formation in whole blood from a BERKγM transgenic mouse. To aliquots of whole blood (100 μL) was added either 5HMF (2 mM or 5 mM), the sodium salt of PABA (2 mM or 5 mM), or equimolar concentrations of PABA/5HMF (2 mM or 5 mM). […] The rate enhancements are not optimized in these experiments, and additional experiments to account for the differences in rates of transport across the RBC membrane will be performed during Phase II SBIR studies.
Target sequence in this assay (P69905 2-142): as the sequence (P69905 2-142 limits assumed) above

[7] = molecular target: T2, HbS; experiment: In vivo 5HMF/HbS adduct formation after intravenous injection; design: species or system BERK M mice; details: 200 mg/kg each
Protocol: BERK M mice were injected (intravenous) with solutions containing either 5HMF (200 mg/kg) or 5HMF (200 mg/kg) and the sodium salt of PABA (200 mg/kg). […] To assess of 5HMF/HbS adduct formation, aliquots of blood were taken at 10 and 30 min, and immediately washed, lysed and subjected to HPLC as previously described.
Target sequence in this assay (P69905 2-142): as the sequence (P69905 2-142 limits assumed) above

[8] = test system: sickle cells; details: in vitro, high concentrations of 5HMF; cited from earlier work
[9] = mouse, in vivo; cited from earlier work
[10] = Behaviour and toxicity after intravenous injection
[11] = test system: T-cell surface amines; experiment: Competitive covalent ligation assay, Tucaresol/T-cell adduct formation (flow cytometry); type: cell-based, Balb/c male mice; details: 500 μM Tucaresol and/or 1 mM PABA, 30 min, 37° C.
Text: The central hypothesis of our approach involves utilizing PABA to increase the rate of Schiff base formation between Tucaresol and T-cells in order to minimize the concentration of Tucaresol required for efficacy. We used an established competitive covalent ligation assay (2) to examine the influence of PABA on the rate and degree of Schiff base-adduct formation between Tucaresol and T-cells isolated from the spleens of Balb/c male mice. In this assay, the degree of Tucaresol/T-cell adduct formation is inversely proportional to the mean fluorescence intensity (as visualized by ligation with S-NHS-biotin and FITC-avidin). T-cells were incubated for 30 min with 500 μM Tucaresol only (blue column, FIG. 5), 1 mM PABA only (orange column, FIG. 5) or a mixture of 500 μM Tucaresol and 1 mM PABA (red column, FIG. 5) at 37° C. After 30 min, the reducing agent NaCNBH3 was added to selectively reduce Schiff base adducts (chemically trapping the Tucaresol/T-cell adduct). Washed cells were exposed for 1 h to 12.5 μM S-NHS-biotin (Pierce Rockford, Ill.) to ligate unreacted free surface amino groups. After washing, cells were exposed to excess fluorescent avidin (FITC-avidin) (Pierce), fixed and visualized using flow cytometry.

[12] = Melanoidin formation in vitro in glycine/DHA solutions; details: glycine (6%) and DHA (6%), 32° C.
Protocol: Solutions of glycine (6%) and DHA (6%) in 100 mM NH4OAc buffer pH 5.5 were incubated in the presence (+) and absence (−) of the sodium salt of PABA (1%) at 32° C.

[13] = humans; cited from earlier work
[14] = test system: HIV-positive patients; details: cited from earlier work

hemoglobin, sequence (P69905 2-142 limits assumed): as above
hemoglobin, sequence (P68871 2-147 partner limits assumed): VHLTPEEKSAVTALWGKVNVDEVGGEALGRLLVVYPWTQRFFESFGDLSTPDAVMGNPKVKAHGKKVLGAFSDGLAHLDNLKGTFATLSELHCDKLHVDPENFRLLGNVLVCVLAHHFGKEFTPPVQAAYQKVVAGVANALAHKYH
T1 sequence (P69905 2-142 limits assumed): as the sequence (P69905 2-142 limits assumed) above
T1 sequence (P68871 2-147 partner limits assumed): as the sequence (P68871 2-147 partner limits assumed) above

In the case of CCC=CCCOC(=O)c1ccccc1N [3-hexen-1-yl anthranilate], the “rate at which melanoidin formation occurs on human skin” value (shortened to “rate … on human skin”) [1] is reported as “significantly increase the rate”.

In the case of O=C(O)c1ccc(/N=C/c2ccc(CO)o2)cc1 [AIC, 4-((5-(hydroxymethyl)furan-2-yl)methyleneamino)benzoic acid], the “rate of 5HMF/HbA adduct formation vs 5HMF (in words)” value ([2]; 1 mM AIC or 1 mM 5HMF) is reported as “significantly enhanced rates”, the “percent Hb adduct (5HMF/HbA)” value ([2]; 1 mM) is reported as ~32% and the “initial rate of Schiff base adduct formation with HbA relative to 5HMF” value ([2]; 1 mM, room temperature) is reported as ~10 times. The 5HMF/HbS adduct formed ([3]; 5 mM, whole blood) was 50%, the “rate of 5HMF/HbS adduct formation vs 5HMF (in words)” value ([3]; 5 mM, whole blood, initial rate measured after 10 min) was “significantly faster; also recorded: significantly enhanced rates” and the erythrocyte membrane permeation ([3]; whole blood, 5 mM) was “permeates the erythrocyte membrane”. The “chemical change by 1HNMR spectra and HPLC chromatogram on storage” value [4] was “no changes” and the “color change on storage” value [4] was “did not exhibit a noticeable color change”.

With O=Cc1ccc(CO)o1 [Example 5HMF, 5-hydroxymethyl-2-furfural] the “n50 (hill coefficient)” value ([5]; Exp A: 1 mM 5HMF, 1 h 37° C.) was 2.50, the “ΔP50 (%)” value ([5]; Exp A: 1 mM 5HMF, 1 h 37° C., vs control P50) was 7.53% and the P50 ([5]; Exp A: 1 mM 5HMF, Hb 1 mg/ml PBS pH 7.4, 1 h 37° C.) was 14.00 mmHg. For the same molecule, the P50 ([5]; Exp E: 3 mM 5HMF, 1 h 37° C.) was 8.21 mmHg, the “n50 (hill coefficient)” value ([5]; Exp E: 3 mM 5HMF, 1 h 37° C.) was 1.73 and the “ΔP50 (%)” value ([5]; Exp E: 3 mM 5HMF, 1 h 37° C.) was 45.78%. The P50 ([5]; Exp F: 5 mM 5HMF, 1 h 37° C.) was 5.72 mmHg, the “n50 (hill coefficient)” value ([5]; Exp F: 5 mM 5HMF, 1 h 37° C.) was 1.91 and the “ΔP50 (%)” value ([5]; Exp F: 5 mM 5HMF, 1 h 37° C.) was 62.22%. For the same molecule, the “percent Hb adduct (5HMF/HbA)” value ([2]; 1 mM) was 6%, the 5HMF/HbS adduct formed ([3]; 5 mM, whole blood) was 27% and the “chemical change by 1HNMR spectra and HPLC chromatogram on storage” value [4] was “After 3 days, the 5HMF sample has undergone significant chemical changes”. The “color change on storage” value [4] was “becomes yellow after 24 h”, the 5HMF/HbS adduct formed ([6]; 2 mM (equimolar for mixture), 37° C.) was 23% and the 5HMF/HbS adduct formed ([6]; 5 mM (equimolar for mixture), 30 minutes at 37° C.) was 40%. The 5HMF/HbS adduct ([7]; blood taken at 10 min) was 5.1%, the 5HMF/HbS adduct ([7]; blood taken at 30 min) was 4.1% and the “hypoxia-induced formation of sickle cells” value [8] was “largely inhibited”. The “survival time of mice exposed to severe hypoxia” value [9] was “prolonged the survival time”, the “behavior of mice after injection” value ([10]; 200 mg/kg, intravenous) was “became lethargic and exhibited noticeable changes in behavior” and the convulsion and death ([10]; higher concentrations of 5HMF (300-500 mg/kg)) was “caused mice to convulse and die”.

In the case of CC1CCC(C(C)C)C(OC(=O)c2ccccc2N)C1 (stereo not drawn) [Menthyl-o-aminobenzoate], the “rate … on human skin” value [1] is reported as “significantly increase the rate”.

For Nc1ccccc1C(=O)O [OABA, o-aminobenzoic acid], the “rate … on human skin” value [1] was “significantly increase the rate”.

In the case of Nc1ccc(C(=O)O)cc1 [PABA, p-aminobenzoic acid], the “shift of OEC / change in P50 value vs Hb control” value ([5]; 100 mM, 10 mM or 1 mM PABA, no 5HMF) is reported as “did not shift the OEC or cause a change in the P50 value”, the “new adduct peak by HPLC” value ([2]; PABA only control) is reported as “did not show a new peak” and the “new adduct peak by HPLC” value ([3]; PABA only negative control) is reported as “did not show a new peak”. For the same molecule, the “amount of 5HMF/HbS adduct formed in the presence of equimolar PABA (in words)” value ([6]; 2 mM or 5 mM 5HMF with equimolar PABA, FIG. 2) was “significantly increased”, the adduct formation ([6]; PABA only control (2 mM or 5 mM)) was “did not result in any adduct formation” and the “mean fluorescence intensity of T-cells (inversely proportional to Tucaresol/T-cell adduct formation)” value [11] was “did not exhibit a change in mean fluorescent intensity”. For the same molecule, the “rate of darkening of solutions” value ([12]; 100 mM NH4OAc pH 5.5, 1% PABA sodium salt, vs no PABA) was “darkened at faster rates”, the “change of UV-Vis spectrum” value ([12]; 1% PABA) was “changed more rapidly” and the “rate … on human skin” value [1] was “significantly increase the rate”. For the same molecule, the “daily doses with no reported side effects” value [13] was “below 12 grams”.

In the case of O=Cc1c(O)cccc1OCc1ccc(C(=O)O)cc1 [Tucaresol, 4(2-formyl-3-hydroxy-phenoxymethyl) benzoic acid], the “CD4+ counts” value ([14]; HIV-positive patients) is listed as “increase in CD4+ counts”, the HIV viraemia ([14]; HIV-positive patients) is listed as “unaffected” and the “Tucaresol-related serious adverse events (patients)” value ([14]; after the first dose) is listed as 2/21.

In the case of CCCCOC(=O)c1ccccc1N [butyl anthranilate], the “rate … on human skin” value [1] is reported as “significantly increase the rate”.

With CCOC(=O)c1ccccc1N [ethyl anthranilate] the “rate … on human skin” value [1] was “significantly increase the rate”.

In the case of COC(=O)c1ccccc1N [methyl anthranilate], the “rate … on human skin” value [1] is reported as “significantly increase the rate”.
